Source: patent US9994587B2, “HIV protease inhibitors” (priority 2014, dated 2018)

Biological target: T1, wildtype HIV-1 protease (Human immunodeficiency virus type 1 group M subtype B, UniProt P04585)
T1 construct: preincubated with the HIV-1 protease (wild type) enzyme in assay buffer; made in house; host or cells: Escherichia coli
Experiment: Assay for inhibition of microbial expressed HIV protease (Pepcleav)
Format: biochemical
Conditions: wild type HIV-1 protease 20 pM, peptide substrate 400 micromolar, pH 5.5; mean of at least two independent experiments
Procedure: Assay for Inhibition of Microbial Expressed HIV Protease (“Pepcleav”)
Studies of the inhibition of the wildtype HIV-1 protease (which was expressed in Escherichia coli) were carried out with a peptide substrate [Val-Ser-Gln-Asn-(βnaphtyl)Ala-Pro-Ile-Val (SEQ ID NO 1)]. The inhibitor was first preincubated with the HIV-1 protease (wild type) enzyme in assay buffer (50 mM sodium acetate, pH 5.5, 100 mM NaCl, and 0.1% BSA) for 30 minutes at room temperature. Substrate was added to 400 micromolar in a total volume of 20 microliters containing 20 picomolar HIV-1 protease (final) and the reaction is incubated for 1 hour at 30° C. The reaction was quenched with the addition of formic acid and indinavir to 0.012% and 150 nM final concentrations, respectively. Product formation was determined after separation of product and substrate on a Zorbax Eclipse XDB-C18 column connected to an API 4000 mass spectrometer (Applied Biosystems) with multiple reaction monitoring (transitions were 644.5/428.9 and 615.4/422.2 (M1/M3) for product and indinavir respectively). The extent of inhibition of the reaction was determined from the peak area of the products.

| SMILES | IC50 |
| --- | --- |
| COC(=O)N[C@H](C(=O)Nc1nccnc1CC[C@@H]1CNC[C@@H](COc2ccc(C#N)cc2)O1)C(c1ccccc1)c1ccccc1 [Example 84, methyl N-[(1S)-1-benzhydryl-2-[[3-[2-[(2R,6S)-6-[(4-cyanophenoxy)methyl]morpholin-2-yl]ethyl]pyrazin-2-yl]amino]-2-oxo-ethyl]carbamate] | 0.43 µM |
| COC(=O)N[C@H](C(=O)Nc1ccccc1CC[C@@H]1CNC[C@@H](COc2cccnc2C)O1)C(c1ccccc1)c1ccccc1 [Example 50, N-α-(methoxycarbonyl)-N-(2-{2-[(2R,6S)-6-{[(2-methylpyridin-3-yl)oxy]methyl}morpholin-2-yl]ethyl}phenyl)-β-phenyl-L-phenylalaninamide] | 0.13 µM |
| COC(=O)N[C@H](C(=O)Nc1ccccc1CC[C@@H]1CNC[C@@H](COc2ccc(C#N)cc2)O1)C(c1ccccc1)c1ccccc1 [Example 17, methyl N-[(1S)-1-benzhydryl-2-[[2-[2-[(2R,6S)-6-[(4-cyanophenoxy)methyl]morpholin-2-yl]ethyl]phenyl]amino]-2-oxo-ethyl]carbamate] | 0.021 µM |
| COC(=O)N[C@H](C(=O)Nc1c(F)cccc1CC[C@@H]1CNC[C@@H](COc2ccc(C#N)cc2)O1)C(c1ccccc1)c1ccccc1 [Example 76, N-[2-(2-{(2R,6S)-6-[(4-cyanophenoxy)methyl]morpholin-2-yl}ethyl)-6-fluorophenyl]-Nα-(methoxycarbonyl)-β-phenyl-L-phenylalaninamide] | 0.0091 µM |
| COC(=O)N[C@H](C(=O)NCCCC1CNC[C@@H](CSc2ccc(Cl)cc2C)O1)C(c1ccccc1)c1ccccc1 (stereo partly drawn) [Example 3, methyl N-[(1S)-1-benzhydryl-2-[3-[(6S)-6-[(4-chloro-2-methyl-phenyl)sulfanylmethyl]morpholin-2-yl]propylamino]-2-oxo-ethyl]carbamate] | 0.42 µM |
| COC(=O)N[C@H](C(=O)Nc1ccccc1CC[C@@H]1CNC[C@@H](CSc2ccc(S(C)(=O)=O)cc2)O1)C(c1ccccc1)c1ccccc1 [Example 21, methyl N-[(1S)-1-benzhydryl-2-[[2-[2-[(2R,6S)-6-[(4-methylsulfonylphenyl)sulfanyl-methyl]morpholin-2-yl]ethyl]phenyl]amino]-2-oxo-ethyl]carbamate] | 0.00086 µM |
| COC(=O)N[C@H](C(=O)Nc1ccccc1CC[C@@H]1CNC[C@@H](CSc2nnc(-c3ccncc3)o2)O1)C(c1ccccc1)c1ccccc1 [Example 34, methyl N-[(1S)-1-benzhydryl-2-oxo-2-[[2-[2-[(2R,6S)-6-[[5-(4-pyridyl)-1,3,4-oxadiazol-2-yl]sulfanylmethyl]morpholin-2-yl]ethyl]phenyl]amino]ethyl] carbamate] | 0.00042 µM |
| COC(=O)N[C@H](C(=O)Nc1ccccc1CC[C@@H]1CNC[C@@H](CSc2cccc(Cl)c2)O1)C(c1ccccc1)c1ccccc1 [Example 18, methyl N-[(1S)-1-benzhydryl-2-[[2-[2-[(2R,6S)-6-[(3-chlorophenyl)sulfanylmethyl]morpholin-2-yl]ethyl]phenyl]amino]-2-oxo-ethyl]carbamate] | 0.0019 µM |
| COC(=O)N[C@H](C(=O)Nc1ccccc1CC[C@@H]1CNC[C@@H](COc2ccc(Br)cc2N)O1)C(c1ccccc1)c1ccccc1 [Example 13, methyl N-[(1S)-1-[[2-[2-[(2R,6S)-6-[(2-amino-4-bromo-phenoxy)methyl]morpholin-2-yl]ethyl]phenyl]carbamoyl]-2,2-diphenyl-ethyl]carbamate] | 0.021 µM |
| COC(=O)N[C@H](C(=O)Nc1ccccc1CC[C@@H]1CNC[C@@H](COc2cccc3cc[nH]c23)O1)C(c1ccccc1)c1ccccc1 [Example 38, N-[2-(2-{(2R,6S)-6-[(1H-indol-7-yloxy)methyl]morpholin-2-yl}ethyl)phenyl]-Na-(methoxycarbonyl)-b-phenyl-L-phenylalaninamide] | 0.24 µM |
| COC(=O)N[C@H](C(=O)Nc1cccc(F)c1CC[C@@H]1CNC[C@@H](COc2ccc(C#N)cc2)O1)C(c1ccccc1)c1ccccc1 [Example 71, N-[2-(2-{(2R,6S)-6-[(4-cyanophenoxy)methyl]morpholin-2-yl}ethyl)-3-fluorophenyl]-Nα-(methoxycarbonyl)-β-phenyl-L-phenylalaninamide] | 0.0074 µM |
| COC(=O)N[C@H](C(=O)Nc1ccccc1CC[C@@H]1CNC[C@@H](COc2ccc(Cc3ccccc3)cc2)O1)C(c1ccccc1)c1ccccc1 [Example 12, methyl N-[(1S)-1-benzhydryl-2-[[2-[2-[(2R,6S)-6-[(4-benzylphenoxy)methyl]morpholin-2-yl]ethyl]phenyl]amino]-2-oxo-ethyl]carbamate] | 0.024 µM |
| COC(=O)N[C@H](C(=O)Nc1ccccc1CC[C@@H]1CNC[C@@H](COc2cccc3[nH]ccc23)O1)C(c1ccccc1)c1ccccc1 [Example 30, methyl N-[(1S)-1-benzhydryl-2-[[2-[2-[(2R,6S)-6-(1H-indol-4-yloxymethyl)morpholin-2-yl]ethyl]phenyl]amino]-2-oxo-ethyl]carbamate] | 0.13 µM |
| COC(=O)N[C@H](C(=O)Nc1ccccc1CC[C@@H]1CNC[C@@H](/C=C/c2ccc(Cl)cc2)O1)C(c1ccccc1)c1ccccc1 [Example 60, N-[2-(2-{(2R,6R)-6-[(E)-2-(4-chlorophenyl)ethenyl]morpholin-2-yl}ethyl)phenyl]-Nα-(methoxycarbonyl)-β-phenyl-L-phenylalaniamide] | 0.019 µM |
| COC(=O)N[C@H](C(=O)Nc1ccccc1CC[C@@H]1CNC[C@@H](CSc2ncccc2Cl)O1)C(c1ccccc1)c1ccccc1 [Example 54, N-(2-{2-[(2R,6S)-6-{[(3-chloropyridin-2-yl)sulfanyl]methyl}morpholin-2-yl]ethyl}phenyl)-Nα-(methoxycarbonyl)-β-phenyl-L-phenylalaninamide] | 0.00093 µM |
| COC(=O)N[C@H](C(=O)Nc1cccnc1CC[C@@H]1CNC[C@@H](COc2cccc(C#N)c2)O1)C(c1ccccc1)c1ccccc1 [Example 113, N-[2-(2-{(2R,6S)-6-[(3-cyanophenoxy)methyl]morpholin-2-yl}ethyl)pyridin-3-yl]-Nα-(methoxycarbonyl)-β-phenyl-L-phenylalaninamide] | 0.51 µM |
| COC(=O)N[C@H](C(=O)Nc1ccc(F)cc1CC[C@@H]1CNC[C@@H](COc2ccc(C#N)cc2)O1)C(c1ccccc1)c1ccccc1 [Example 75, N-[2-(2-{(2R,6S)-6-[(4-cyanophenoxy)methyl]morpholin-2-yl}ethyl)-4-fluorophenyl]-Nα-(methoxycarbonyl)-β-phenyl-L-phenylalaninamide] | 0.046 µM |
| COC(=O)N[C@H](C(=O)Nc1cc(F)cnc1CC[C@@H]1CNC[C@@H](COc2ccc(C#N)cc2)O1)C(c1ccccc1)c1ccccc1 [Example 78, N-[2-(2-{(2R,6S)-6-[(4-cyanophenoxy)methyl]morpholin-2-yl}ethyl)-5-fluoropyridin-3-yl]-Nα-(methoxycarbonyl)-β-phenyl-L-phenylalaninamide] | 0.15 µM |
| O=C(Nc1c(CC[C@@H]2CNC[C@@H](CSc3ccc(Cl)cc3)O2)cc[nH]c1=O)[C@@H](NCC(F)(F)F)C(c1ccccc1)c1ccccc1 [Example 89, N-(4-{2-[(2R,6S)-6-{[(4-chlorophenyl)sulfanyl]methyl}morpholin-2-yl]ethyl}-2-oxo-1,2-dihydropyridin-3-yl)-β-phenyl-Nα-(2,2,2-trifluoroethyl)-L-phenylalaninamide] | 0.0123 µM |
| COC(=O)N[C@H](C(=O)Nc1ccccc1CCC1CNC[C@@H](CSc2ccc(Cl)cc2)O1)C(c1ccccc1)c1ccccc1 (stereo partly drawn) [Example 6, methyl N-[(1S)-1-benzhydryl-2-[[2-[2-[(6S)-6-[(4-chlorophenyl)sulfanylmethyl]morpholin-2-yl]ethyl]phenyl]amino]-2-oxo-ethyl]carbamate] | 0.0019 µM |
| COC(=O)N[C@H](C(=O)Nc1ccccc1CC[C@@H]1CNC[C@@H](CSc2ccc(Cl)cc2Cl)O1)C(c1ccccc1)c1ccccc1 [Example 25, methyl N-[(1S)-1-benzhydryl-2-[[2-[2-[(2R,6S)-6-[(2,4-dichlorophenyl)sulfanylmethyl]morpholin-2-yl]ethyl]phenyl]amino]-2-oxo-ethyl]carbamate] | 0.0015 µM |
| COC(=O)N[C@H](C(=O)Nc1ccccc1CC[C@@H]1CNC[C@@H](COc2ccc(-c3ccccc3)cc2)O1)C(c1ccccc1)c1ccccc1 [Example 11, methyl N-[(1S)-1-benzhydryl-2-oxo-2-[[2-[2-[(2R,6S)-6-[(4-phenylphenoxy)methyl]morpholin-2-yl]ethyl]phenyl]amino]ethyl] carbamate] | 0.0066 µM |
| COC(=O)N[C@H](C(=O)Nc1ccccc1CC[C@@H]1CNC[C@@H](CS(=O)(=O)c2ccc(Cl)cc2)O1)C(c1ccccc1)c1ccccc1 [Example 56, methyl N-[(1S)-1-benzhydryl-2-[[2-[2-[(2R,6S)-6-[(4-chlorophenyl)sulfonylmethyl]morpholin-2-yl]ethyl]phenyl]amino]-2-oxo-ethyl]carbamate] | 0.11 µM |
| COC(=O)N[C@H](C(=O)Nc1ccccc1CC[C@@H]1CNC[C@@H](COc2ccc(S(C)(=O)=O)cc2C)O1)C(c1ccccc1)c1ccccc1 [Example 28, methyl N-[(1S)-1-benzhydryl-2-[[2-[2-[(2R,6S)-6-[(2-methyl-4-methylsulfonyl-phenoxy)methyl]morpholin-2-yl]ethyl]phenyl]amino]-2-oxo-ethyl]carbamate] | 0.018 µM |
